According to patent publication US7425556B2 (priority 2005, dated 2008):

Assays:
[1] = target: T1, GABAA2 receptors (α2, β3, γ2 receptor subunits) (Homo sapiens, UniProt P18507+P47869); assay: biochemical; settings: [3H]-Flunitrazepam ~2 nM, α2β3γ2 Sf9 membranes, 1 hr at 4° C.; read-out: GABAA2 Binding Ki
T1 construct: host or cells: Sf9 cells (membranes)
Experimental: In some embodiments, the binding test was directed to a subtype of GABAA receptors, such as GABAA1 receptors (i.e., those containing the α1 subunit), GABAA2 receptors (i.e., those containing the α2 subunit), GABAA3 receptors (i.e., those containing the α3 subunit) and GABAA5 receptors (i.e., those containing the α5 subunit).
[formula] Method FF GABAA2 Binding Method Reagents
Assay and Wash Buffer: 50 mM Tris-Citrate, 200 mM NaCl, pH 7.8
Compounds at 10 mM in DMSO: Put 75 μl in column 1 of compound plate.
Flumazenil, 10 mM (for NSB)
[^3H]-Flunitrazepam (Cat #NET567): Prepare 10× stock=20 nM, [F} in assay=˜2 nM
1. […] Add 5 ul of 30 uM flumazenil to wells 12 D-E for 50% control wells.
2. Spot 2 μl of compound dilutions into dry plate (Automation Program 3). Manually spot 2 μl 10 mM flumazenil into wells 12 F-H for nonspecific control.
3. Make 1:100 dilution in assay buffer (2 μl into 200 μl) and dispense 25 μl compound into assay plates (Automation Program 4).
4. Dispense 200 μl membranes into assay plate (Automation Program 5).
5. Add 25 μl [^3H]-Flunitrazepam (Automation Program 6). Incubate for 1 hr at 4° C.
6. Collect membranes on a cell harvester onto GF/B filter plates (pre-wet with dH2O and wash 5×400 μl/well, with cold assay buffer. (First 3 washes are considered hot; last two are cold.)
7. Dry plates for 2-3 hours at RT.
8. Add 40 μl Microsecond 40/well (Automation Program 7); seal plates. Count on a Top Count.
Data is analyzed by calculating percent of control, IC50, and Kid in an Lift template. The following formula is used in the templates: […]

[2] = target: T2, GABAA2 (human α2β3γ2 GABAA receptor) (Homo sapiens, UniProt P18507+P47869); assay: Two-electrode voltage-clamp in Xenopus oocytes, potentiation of GABA EC10 current, GABAA2; assay type: cell-based; settings: percentage potentiation of GABA EC10 current divided by that of diazepam
T2 construct: expressed in transfected cells; host or cells: Xenopus laevis oocytes injected with capped cRNA
Excerpt: (§1) Presently available GABAA modulator anxiolytics work via interactions at the classical benzodiazepine binding site. To a large degree these anxiolytics lack GABAA receptor subtype-selectivity. The subtype-selective GABAA receptor modulators may offer more advantages. […] Sedation, a side-effect common to all marketed benzodiazepines, is believed to be mediated by interactions at GABAARs containing the α1 subunit. To develop anxiolytics with minimal liabilities due to interactions with other subunits, an electrophysiological assay was developed to screen modulatory effects of various compounds on different GABA subunit combinations heterologously expressed in Xenopus oocytes.
(§2) GABAA receptors were heterologously expressed in Xenopus oocytes by injecting cRNA corresponding to human α1, α2, α3, α5, β2, β3 and γ2 subunits of the GABAA receptor genes. The specific subunit combinations (subtypes) were as follows: α1β2γ2, α2β3γ2, α3β3γ2, and α5β3γ2. The EC10 of GABA was approximated for each cell. Stability of GABA-mediated (EC10) current was established. Modulatory effect of test compound was determined and compared across subtypes. […] Thus, the assay can characterize modulatory effects and determine subtype selectivity of test compounds on major subtypes of GABAA receptors.
(§3) Xenopus laevis frogs (Xenopus I, Kalamazoo, MI) were anesthetized using 0. […] Surgically removed ovarian lobes were teased out in OR2 solution (82 NaCl, 2.5 KCl, 5 HEPES, 1.5 NaH2PO4, 1 MgCl2, 0.1 EDTA, in mM, pH 7.4). The acolytes were deflocculated by incubation in 25 mL OR2 containing 0.2% collagens 1A (SIGMA) two times for about 60 minutes on a platform shaker and stored in Leibovitz's L-15 medium. Acolytes were injected the following day in 0.5× Leibovitz's L-15 medium containing […] gentamycin, 10 units/ml penicillin, and […] streptomycin.
(§4) Capped cRNAs from the linear zed vectors containing human α1, β2 and γ2 subunits of the GABAA receptor genes were mixed in ratio of […]. Acolytes were injected with 25-50 nL of mixed RNA with an appx molar ratio for α1, β2 and γ2 as 1:1:10. Acolyte recordings were done 2-10 days after injection. The same methods apply to subtypes derived from α2β3γ2, α3β3γ2, and α5β3γ2, except for 1:1:1 ratio was used for α, β, and γ subunits.
(§5) All measurements were done in a medium containing ND-96 (96 NaCl, 2 KCl, 1.8 CaCl2.2H2O, 1 MgCl2.6H2O, 5 HEPES, in mM, pH 7.5). Two-electrode voltage-clamp recording was carried out using Opus press amplifier (Axon Instruments, Foster City, Calif.), which allows simultaneous recording from 8 acolytes. Acolytes were impaled with two electrodes of 1-2 MΩ tip resistance when filled with 3M KCl. Recordings were begun when membrane potential became stable at potentials negative to −50-−60 mV. Membrane potential was held at −60 mV. […] The concentration of GABA corresponded to the EC10 value calculated for each acolyte. The modulator pulses started 30 s before the GABA pulse so as to allow preoccupation with the modulator. A set of 3 pulses with just GABA without modulator was given prior to the modulator-containing pulses to define the baseline GABA response. Two acolytes per each experiment were dedicated to observe the effect of diazepam on GABA response to ensure the presence of γ subunit in the GABAA pantomimic complex, which imparts diazepam sensitivity to the complex.
(§6) Current amplitude (i) was measured from baseline to peak using Clamp fit (Axon Inst., Foster City, Calif.). Potentiating was calculated as percent change from the baseline GABA current flux 100×(imod/icontrol)−1) where imod=current mediated by modulator+GABA and icontrol=current mediated by GABA alone. […] Similarly, a value of −50% potentiating means the presence of modulator caused a 50% decrease in the control current.

[3] = target: T3, GABAA1 (human α1β2γ2 GABAA receptor) (Homo sapiens, UniProt P14867+P18507); assay: Two-electrode voltage-clamp in Xenopus oocytes, potentiation of GABA EC10 current, GABAA1; assay type: cell-based; settings: percentage potentiation of GABA EC10 current divided by that of diazepam
T3 construct: expressed in transfected cells; host or cells: Xenopus laevis oocytes injected with capped cRNA
Excerpt: as §1, §2, §3, §4, §5, §6

T3 sequence (P14867 28-456): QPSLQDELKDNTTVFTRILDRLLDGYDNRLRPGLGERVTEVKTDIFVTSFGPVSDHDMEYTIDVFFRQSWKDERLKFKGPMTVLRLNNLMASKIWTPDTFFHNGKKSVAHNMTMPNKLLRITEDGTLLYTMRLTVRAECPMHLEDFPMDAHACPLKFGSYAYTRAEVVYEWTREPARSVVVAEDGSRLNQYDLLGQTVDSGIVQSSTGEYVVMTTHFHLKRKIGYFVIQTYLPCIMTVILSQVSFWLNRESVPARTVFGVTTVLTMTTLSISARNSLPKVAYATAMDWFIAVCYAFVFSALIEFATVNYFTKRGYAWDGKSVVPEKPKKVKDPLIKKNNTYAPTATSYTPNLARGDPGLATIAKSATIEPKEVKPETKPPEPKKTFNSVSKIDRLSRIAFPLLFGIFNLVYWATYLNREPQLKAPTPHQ
T3 sequence (P47870 25-512 partner limits assumed): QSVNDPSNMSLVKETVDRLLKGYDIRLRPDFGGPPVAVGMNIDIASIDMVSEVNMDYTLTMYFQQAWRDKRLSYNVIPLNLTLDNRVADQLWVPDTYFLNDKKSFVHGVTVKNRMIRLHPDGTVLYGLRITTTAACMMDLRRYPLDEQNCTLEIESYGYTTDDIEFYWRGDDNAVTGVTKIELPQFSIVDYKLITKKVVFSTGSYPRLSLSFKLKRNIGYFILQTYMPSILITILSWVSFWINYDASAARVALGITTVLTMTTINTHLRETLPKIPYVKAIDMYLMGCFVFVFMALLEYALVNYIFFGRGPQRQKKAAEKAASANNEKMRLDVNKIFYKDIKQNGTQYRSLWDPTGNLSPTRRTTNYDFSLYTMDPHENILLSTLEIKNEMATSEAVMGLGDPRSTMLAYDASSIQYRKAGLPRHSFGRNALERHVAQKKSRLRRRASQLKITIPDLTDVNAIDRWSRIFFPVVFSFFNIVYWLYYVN
T3 sequence (P18507 40-475): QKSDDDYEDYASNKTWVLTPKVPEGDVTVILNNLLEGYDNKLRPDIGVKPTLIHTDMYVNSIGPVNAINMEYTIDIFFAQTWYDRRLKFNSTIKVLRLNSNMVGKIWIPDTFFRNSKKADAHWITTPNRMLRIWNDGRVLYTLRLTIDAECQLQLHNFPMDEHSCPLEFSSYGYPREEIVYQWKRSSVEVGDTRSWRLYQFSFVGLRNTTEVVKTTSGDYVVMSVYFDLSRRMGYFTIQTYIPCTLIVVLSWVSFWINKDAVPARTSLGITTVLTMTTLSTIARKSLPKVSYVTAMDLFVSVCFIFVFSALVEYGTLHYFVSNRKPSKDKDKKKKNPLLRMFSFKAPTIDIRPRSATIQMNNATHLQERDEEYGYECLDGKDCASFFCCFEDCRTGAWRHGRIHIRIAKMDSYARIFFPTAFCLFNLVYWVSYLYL
T1 sequence (P47869 29-451): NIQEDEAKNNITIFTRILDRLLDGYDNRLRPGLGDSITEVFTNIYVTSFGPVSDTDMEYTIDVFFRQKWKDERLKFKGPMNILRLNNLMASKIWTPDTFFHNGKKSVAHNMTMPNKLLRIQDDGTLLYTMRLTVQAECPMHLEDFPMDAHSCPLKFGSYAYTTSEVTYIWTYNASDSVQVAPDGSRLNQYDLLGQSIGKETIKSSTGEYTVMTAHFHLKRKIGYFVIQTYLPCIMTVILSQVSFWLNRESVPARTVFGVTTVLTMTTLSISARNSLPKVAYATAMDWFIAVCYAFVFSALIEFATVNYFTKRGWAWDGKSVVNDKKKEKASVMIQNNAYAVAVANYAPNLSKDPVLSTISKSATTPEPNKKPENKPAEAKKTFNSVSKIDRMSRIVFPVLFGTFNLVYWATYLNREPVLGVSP
T1 sequence (P28472 26-473 partner): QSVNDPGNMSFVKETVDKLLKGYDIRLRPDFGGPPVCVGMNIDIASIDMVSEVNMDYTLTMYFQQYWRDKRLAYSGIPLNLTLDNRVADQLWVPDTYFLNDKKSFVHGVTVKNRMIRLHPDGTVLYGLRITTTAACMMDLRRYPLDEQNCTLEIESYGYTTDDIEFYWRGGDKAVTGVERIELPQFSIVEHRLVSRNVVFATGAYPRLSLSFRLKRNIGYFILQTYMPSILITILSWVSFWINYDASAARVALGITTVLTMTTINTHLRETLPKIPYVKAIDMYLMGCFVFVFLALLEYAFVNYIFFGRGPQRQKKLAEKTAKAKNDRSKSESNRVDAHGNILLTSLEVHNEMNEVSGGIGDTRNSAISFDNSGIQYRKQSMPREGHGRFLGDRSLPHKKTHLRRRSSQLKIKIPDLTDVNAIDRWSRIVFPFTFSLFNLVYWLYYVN
T1 sequence (P18507 40-475): as the sequence (P18507 40-475) above
T2 sequence (P47869 29-451): as the sequence (P47869 29-451) above
T2 sequence (P28472 26-473 partner): as the sequence (P28472 26-473 partner) above
T2 sequence (P18507 40-475): as the sequence (P18507 40-475) above

Structure (SMILES)	Ki [1]	Relative Potentiation for GABAA2 [2]	Relative Potentiation for GABAA1 [3]
CCCNC(=O)c1nnc2c(-c3ccccc3C(F)(F)F)cccc2c1N	0.364 nM	0.063	0.12
CCCNC(=O)c1nnc2c(-c3cnccc3OC)c(Cl)ccc2c1N	0.505 nM	0.14	0.15
CCCNC(=O)c1nnc2c(-c3cccc(OC)c3)cccc2c1N	4.34 nM	0.22	0.13
CCCNC(=O)c1nnc2c(-c3ccc(F)cc3OC)cccc2c1N	4.34 nM	0.38	0.12
CCNC(=O)c1nnc2c(-c3cnccc3OC)cccc2c1N	4.36 nM	0.28	−0.02
CCCNC(=O)c1nnc2c(-c3cc(OC)cc(OC)c3)cccc2c1N	5 nM	0.57	0.28
CCCNC(=O)c1nnc2c(-c3cc(F)ccc3C)cccc2c1N	5.56 nM	0.22	0.02
CCCNC(=O)c1nnc2c(-c3cc(F)cc(F)c3OC)c(F)ccc2c1N	5.78 nM	0.14	0.1
CCCNC(=O)c1nnc2c(-c3ccccc3)c(Cl)ccc2c1N	5.82 nM	0.16	0.25
CCCNC(=O)c1nnc2c(-c3ccc4ncccc4c3)cccc2c1N	6.4 nM	0.23	0.1
CCCNC(=O)c1nnc2c(-c3ccc(OC)c(OC)c3OC)cccc2c1N	6.75 nM	0.33	0.47
CCCNC(=O)c1nnc2c(-c3cn[nH]c3)cccc2c1N	7.38 nM	0.1	−0.063
CCCNC(=O)c1nnc2c(-c3cccc(OC)c3OC)cccc2c1N	7.49 nM	0.013	−0.065
CCCNC(=O)c1nnc2c(-c3cc(F)cc(F)c3)cccc2c1N	8.6 nM	0.26	−0.018
CCCNC(=O)c1nnc2c(-c3ccc(Cl)cc3)c(F)ccc2c1N	8.72 nM	0.19	0.02
C=CCNC(=O)c1nnc2c(-c3cc(OC)ccc3OC)cccc2c1N	8.91 nM	0.33	0.0075
CCCNC(=O)c1nnc2c(-c3cccc(S(C)(=O)=O)c3)cccc2c1N	10.4 nM	0.26	0.34
CCCNC(=O)c1nnc2c(-c3cc(F)ccc3OC)cccc2c1N	10.5 nM	0.4	0.026

Structure (SMILES)	Ki [1]	Relative Potentiation for GABAA2 [2]	Relative Potentiation for GABAA1 [3]
CCCNC(=O)c1nnc2c(-c3cccc(F)c3OC)cccc2c1N	10.9 nM	0.11	0.11
CCCNC(=O)c1nnc2c(-c3cc(C)ccc3C)c(Cl)ccc2c1N	11.2 nM	0.22	0.24
CCCNC(=O)c1nnc2c(-c3cccc(Cl)c3)cccc2c1N	12.3 nM	0.53	0.18
CCCNC(=O)c1nnc2c(-c3cnc4ccccc4c3)cccc2c1N	12.3 nM	0.11	−0.15
CCNC(=O)c1nnc2c(-c3cnc(OC)nc3OC)cccc2c1N	14.4 nM	0.35	0.005
CCCNC(=O)c1nnc2c(-c3ccc(OC)cc3)cccc2c1N	15.4 nM	0.06	−0.11
CCCNC(=O)c1nnc2c(-c3ccc(C)c(C)c3)cccc2c1N	16.8 nM	0.35	0.23
CCCNC(=O)c1nnc2c(-c3ccc(OC)c(C)c3)cccc2c1N	17.6 nM	0.27	0.21
CCCNC(=O)c1nnc2c(-c3ccsc3)cccc2c1N	18.6 nM	0.038	−0.26
Nc1c(C(=O)NCC2CC2)nnc2c(-c3ccccc3)cccc12	18.6 nM	0.24	0.11
CCCNC(=O)c1nnc2c(-c3ccccn3)cccc2c1N	19.4 nM	−0.032	0.027
CCCNC(=O)c1nnc2c(-c3cnc(OC)nc3)cccc2c1N	19.5 nM	0.11	−0.066
CCCNC(=O)c1nnc2c(-c3ccc(F)c(F)c3)cccc2c1N	20 nM	0.12	−0.14
CCCNC(=O)c1nnc2c(-c3ccc(OC)c(F)c3)cccc2c1N	20.2 nM	0.19	0.03
CCCNC(=O)c1nnc2c(-c3cnccn3)cccc2c1N	20.4 nM	−0.01	−0.067
CCCNC(=O)c1nnc2c(-c3cc(Cl)cc(Cl)c3)cccc2c1N	22 nM	0.48	0.28
CCCNC(=O)c1nnc2c(-c3cnc(OC)c(F)c3)cccc2c1N	22.1 nM	0.14	−0.012
CCCNC(=O)c1nnc2c(-c3cnc(OC)c(Cl)c3)cccc2c1N	25.4 nM	0.04	0.086
